From patent publication US20240158392A1 (Janssen Biotech, Inc., priority 2021, published 2024)

Key:
[1] = target: T1, SIK2 (Homo sapiens, UniProt Q9H0K1); assay: SIK2 Enzymatic Assay Version 1 (ADP Glo); format: biochemical; settings: enzyme 0.6 nM, 160 μM ATP and 140 μM HDAC5tide (each 2× final concentration); 30 minutes pre-incubation, 4 hours; ADPGlo luminescence; read-out: SIK2 ADP Glo IC50 (μM) (Test Example 1)
Experimental: All steps were performed at room temperature. Compounds were pre-plated onto an assay plate using an Echo acoustic dispenser (Labcyte, E550 or E555) at 20 nL per well. Enzyme prepared in Assay Buffer at 0.6 nM (2× final concentration) was added at 2 μL per well using the Multidrop Combi (Thermo Fisher—used for all additions in this assay) to the assay plate, spun for 1 min at 800-850 rpm (Allegra 6KR Beckman Coulter centrifuge), and incubated with compound for 30 minutes.
One column of wells was dedicated to a no-peptide negative control (containing only ATP). ADPGlo Reagent (prepared and aliquoted as per manufacturer instructions) was then added at 2 μL per well, spun and incubated for 40 min. ADPGlo Detection (prepared and aliquoted as per manufacturer instructions) was added at 2 μL per well to the assay plate, which was spun and incubated for at least 30 min. The plate was then read on the Pherastar (BMG Labtech) using a luminescence read. Gain was set by the 0.1 mM concentration of ADP wells in the ADP/ATP standard curve plate generated as per manufacturer instructions.

[2] = target: T1, SIK2; assay: SIK2 Enzymatic Assay High Version 2 (High ATP); format: biochemical
Summary of the method: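 At room temperature, enzyme (6 nM, 2× final) was preincubated with compound for 30 min, then 6 mM ATP and 400 μM HDAC5tide (both 2× final) were added for 2 h. ADP formed was measured by ADP-Glo Max (2 h reagent, 1 h detection) using luminescence.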

T1 sequence (Q9H0K1 whole entry, species assumed): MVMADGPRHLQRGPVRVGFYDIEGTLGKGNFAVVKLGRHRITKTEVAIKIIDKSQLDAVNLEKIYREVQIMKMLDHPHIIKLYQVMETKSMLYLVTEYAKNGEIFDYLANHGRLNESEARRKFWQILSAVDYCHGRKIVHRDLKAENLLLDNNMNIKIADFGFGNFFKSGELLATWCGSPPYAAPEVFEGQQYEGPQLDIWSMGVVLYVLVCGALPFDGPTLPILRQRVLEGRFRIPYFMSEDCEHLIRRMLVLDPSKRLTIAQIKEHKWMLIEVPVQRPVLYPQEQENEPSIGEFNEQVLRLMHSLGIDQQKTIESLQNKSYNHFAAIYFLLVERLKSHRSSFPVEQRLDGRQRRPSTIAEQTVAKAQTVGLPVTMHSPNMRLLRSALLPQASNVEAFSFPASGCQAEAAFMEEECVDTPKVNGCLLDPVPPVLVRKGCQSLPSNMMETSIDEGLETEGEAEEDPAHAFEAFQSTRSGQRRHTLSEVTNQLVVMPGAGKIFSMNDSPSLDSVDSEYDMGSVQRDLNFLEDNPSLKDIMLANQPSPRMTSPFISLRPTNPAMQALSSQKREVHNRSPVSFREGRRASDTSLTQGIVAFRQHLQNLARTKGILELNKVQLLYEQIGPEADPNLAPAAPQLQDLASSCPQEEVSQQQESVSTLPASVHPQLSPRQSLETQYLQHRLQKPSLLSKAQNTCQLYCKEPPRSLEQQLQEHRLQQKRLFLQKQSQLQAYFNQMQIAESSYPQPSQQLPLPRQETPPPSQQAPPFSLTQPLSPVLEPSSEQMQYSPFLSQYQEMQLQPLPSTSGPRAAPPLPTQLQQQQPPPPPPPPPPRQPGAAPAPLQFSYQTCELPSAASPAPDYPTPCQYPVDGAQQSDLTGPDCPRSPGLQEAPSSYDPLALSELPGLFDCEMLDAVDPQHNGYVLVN

SMILES	IC50 [1]	IC50 [2]
Cc1cc(-c2ccn3nc(NC(=O)C4CC4)cc3c2)c(O[C@H]2C[C@H](N)C2)cn1 [Example 170, trans-N-[5-[5-(3-aminocyclobutoxy)-2-methyl-4-pyridyl]pyrazolo[1,5-a]pyridin-2-yl]cyclopropanecarboxamide]	0.000853 µM	12.9 nM
N#Cc1cc(-c2ccn3nc(NC(=O)C4CC4)cc3c2)c(OC[C@H]2C[C@@H](N)C2)cn1 [Example 175, N-(5-(5-(((1s,3s)-3-aminocyclobutyl)methoxy)-2-cyanopyridin-4-yl)pyrazolo[1,5-a]pyridin-2-yl)cyclopropanecarboxamide]	0.000443 µM	8.45 nM
N#CCN1CC[C@@H](Oc2cnc(C#N)cc2-c2ccn3nc(NC(=O)C4CC4)cc3c2)C1 [Example 113, (R)—N-[5-[2-cyano-5-[(3R)-1-(cyanomethyl)pyrrolidin-3-yl]oxy-4-pyridyl]pyrazolo[1,5-a]pyridin-2-yl]cyclopropanecarboxamide]	0.000393 µM	2.27 nM
CC#Cc1cc(-c2ccn3nc(NC(=O)C4CC4)cc3c2)c(OC[C@@H]2CCN(C)C2)cn1 [Example 441, N-[5-[5-[[(3R)-1-methylpyrrolidin-3-yl]methoxy]-2-prop-1-ynyl-4-pyridyl]pyrazolo[1,5-a]pyridin-2-yl]cyclopropanecarboxamide]	0.00106 µM	12.1 nM
N#Cc1cc(-c2ccn3nc(NC(=O)C4CC4)cc3c2)c(OC[C@@H]2C[C@H]3CC[C@@H](C2)N3)cn1 [Example 67, N-[5-[5-[[(1S,5R)-8-azabicyclo[3.2.1]octan-3-yl]methoxy]-2-cyano-4-pyridyl]pyrazolo[1,5-a]pyridin-2-yl]cyclopropanecarboxamide]	0.000631 µM	8.63 nM
CC1(C)CNC[C@@H](COc2ccc(C#N)cc2-c2ccn3nc(NC(=O)C4CC4)cc3c2)O1 [Example 104, N-[5-[5-cyano-2-[[(2S)-6,6-dimethylmorpholin-2-yl]methoxy]phenyl]pyrazolo[1,5-a]pyridin-2-yl]cyclopropanecarboxamide]	0.00588 µM	31 nM
N#Cc1cc(-c2ccn3nc(NC(=O)C4CC4)cc3c2)c(O[C@@H]2CCN(Cc3ccccn3)C2)cn1 [Example 112, (R)—N-[5-[2-cyano-5-[(3R)-1-(2-pyridylmethyl)pyrrolidin-3-yl]oxy-4-pyridyl]pyrazolo[1,5-a]pyridin-2-yl]cyclopropanecarboxamide]	0.00356 µM	81.5 nM
Cn1ccc(N[C@H]2C[C@@H](COc3cnc(C#N)cc3-c3ccn4nc(NC(=O)C5CC5)cc4c3)C2)n1 [Example 177, cis-N-[5-[2-cyano-5-[[3-[(1-methylpyrazol-3-yl)amino]cyclobutyl]methoxy]-4-pyridyl]pyrazolo[1,5-a]pyridin-2-yl]cyclopropanecarboxamide]	0.00137 µM	29.3 nM
N#Cc1cc(-c2ccn3nc(NC(=O)C4CC4)cc3c2)c(OCC2CC2)cn1 [Example 584, N-[5-[2-cyano-5-(cyclopropylmethoxy)-4-pyridyl]pyrazolo[1,5-a]pyridin-2-yl]cyclopropanecarboxamide]	0.00253 µM	35.3 nM
N#Cc1cc(-c2ccn3nc(NC(=O)C4CC4)cc3c2)c(OC2C[C@H]3COC[C@@H](C2)N3)cn1 (stereo partly drawn) [Example 92, (3-endo)-N-[5-[2-cyano-5-[[(1R,5S)-3-oxa-9-azabicyclo[3.3.1]nonan-7-yl]oxy]-4-pyridyl]pyrazolo[1,5-a]pyridin-2-yl]cyclopropanecarboxamide]	0.00013 µM	< 0.838 nM
CN1CCC(Oc2cnc(C#N)cc2-c2ccn3nc(NC(=O)C4CC4)cc3c2)CC1 [Example 85, N-[5-[2-cyano-5-[(1-methyl-4-piperidyl)oxy]-4-pyridyl]pyrazolo[1,5-a]pyridin-2-yl]cyclopropanecarboxamide]	0.00256 µM	50.7 nM
Cc1cc(-c2ccn3nc(NC(=O)C4CC4)cc3c2)c(O[C@H]2C[C@H]3CC[C@@H](C2)N3C)cn1 [Example 138, N-(5-(2-methyl-5-(((1R,3r,5S)-8-methyl-8-azabicyclo[3.2.1]octan-3-yl)oxy)pyridin-4-yl)pyrazolo[1,5-a]pyridin-2-yl)cyclopropanecarboxamide]	0.000854 µM	12.9 nM
Cc1cc(-c2ccn3nc(NC(=O)C4CC4)cc3c2)c(O[C@H]2CC[C@@H](O)C2)cn1 (single isomer, unassigned) [Example 179, cis-N-(5-(5-(((1*S,3*R)-3-hydroxycyclopentyl)oxy)-2-methylpyridin-4-yl)pyrazolo[1,5-a]pyridin-2-yl)cyclopropanecarboxamide]	0.00308 µM	52.1 nM
Cc1cc(-c2ccn3nc(NC(=O)C4CC4)cc3c2)c(OC[C@H]2C[C@@H](N)C2)cn1 [Example 171, cis-N-[5-[5-[(3-aminocyclobutyl)methoxy]-2-methyl-4-pyridyl]pyrazolo[1,5-a]pyridin-2-yl]cyclopropanecarboxamide]	0.000617 µM	12.3 nM
Cc1cc(-c2ccn3nc(NC(=O)C4CC4)cc3c2)c(O[C@@H]2CCN(C)C2)cn1 [Example 137, N-[5-[2-methyl-5-[(3R)-1-methylpyrrolidin-3-yl]oxy-4-pyridyl]pyrazolo[1,5-a]pyridin-2-yl]cyclopropanecarboxamide]	0.00334 µM	70 nM
CN1CC[C@@H](Oc2cnc(C#N)cc2-c2ccn3nc(NC(=O)C4CC4)cc3c2)C[C@H]1C(F)(F)F (single isomer, unassigned) [Example 29, N-(5-(2-cyano-5-(((2*S,4*R)-1-methyl-2-(trifluoromethyl)piperidin-4-yl)oxy)pyridin-4-yl)pyrazolo[1,5-a]pyridin-2-yl)cyclopropanecarboxamide]	0.00575 µM	145 nM
Cc1cc(Nc2cc3cc(-c4cc(OC(C)C)ncc4OCC(C)(C)C#N)ccn3n2)nc(C)n1 [Example 663, 3-[[4-[2-[(2,6-dimethylpyrimidin-4-yl)amino]pyrazolo[1,5-a]pyridin-5-yl]-6-isopropoxy-3-pyridyl]oxy]-2,2-dimethyl-propanenitrile]	0.000151 µM	< 0.838 nM
Cc1cc(-c2ccn3nc(Nc4ccccn4)cc3c2)c(OC2CN(C)C2)cn1 [Example 567, 5-[2-methyl-5-(1-methylazetidin-3-yl)oxy-4-pyridyl]-N-(2-pyridyl)pyrazolo[1,5-a]pyridin-2-amine]	0.00757 µM	251 nM
CC(=O)N1CCC(COc2cnc(C#N)cc2-c2ccn3nc(NC(=O)C4CC4)cc3c2)CC1 [Example 60, N-[5-[5-[(1-acetyl-4-piperidyl)methoxy]-2-cyano-4-pyridyl]pyrazolo[1,5-a]pyridin-2-yl]cyclopropanecarboxamide]	0.00492 µM	98.6 nM
N#Cc1cc(-c2ccn3nc(NC(=O)C4CC4)cc3c2)c(OC[C@@H]2CCN(CC(F)(F)F)C2)cn1 [Example 588, N-[5-[2-cyano-5-[[(3R)-1-(2,2,2-trifluoroethyl)pyrrolidin-3-yl]methoxy]-4-pyridyl]pyrazolo[1,5-a]pyridin-2-yl]cyclopropanecarboxamide]	0.00342 µM	59.6 nM
Cn1ccc(Nc2cc3cc(-c4cc(C#N)ccc4OC[C@H]4CNCCO4)ccn3n2)n1 [Example 566, 3-[2-[(1-methylpyrazol-3-yl)amino]pyrazolo[1,5-a]pyridin-5-yl]-4-[[(2R)-morpholin-2-yl]methoxy]benzonitrile]	0.00389 µM	101 nM
N#Cc1cc(-c2ccn3nc(NC(=O)C4CC4)cc3c2)c(OCC23CCC(CC2)C(=O)N3)cn1 [Example 40, N-[5-[2-cyano-5-[(2-oxo-3-azabicyclo[2.2.2]octan-4-yl)methoxy]-4-pyridyl]pyrazolo[1,5-a]pyridin-2-yl]cyclopropanecarboxamide]	0.0047 µM	87.6 nM
N#Cc1cc(-c2ccn3nc(NC(=O)C4CC4)cc3c2)c(OCC2(O)CCC2)cn1 [Example 41, N-[5-[2-cyano-5-[(1-hydroxycyclobutyl)methoxy]-4-pyridyl]pyrazolo[1,5-a]pyridin-2-yl]cyclopropanecarboxamide]	0.00243 µM	58.5 nM
N#Cc1cc(-c2ccn3nc(NC(=O)C4CC4)cc3c2)c(OCC(O)(C(F)(F)F)C(F)(F)F)cn1 [Example 99, N-[5-[2-cyano-5-[3,3,3-trifluoro-2-hydroxy-2-(trifluoromethyl)propoxy]-4-pyridyl]pyrazolo[1,5-a]pyridin-2-yl]cyclopropanecarboxamide]	0.00295 µM	37.6 nM
Cc1cc(-c2ccn3nc(NC(=O)C4CC4)cc3c2)c(O[C@H]2C[C@H]3COC[C@@H](C2)N3)cn1 [Example 136, endo-N-(5-(5-(((1R,5S,7s)-3-oxa-9-azabicyclo[3.3.1]nonan-7-yl)oxy)-2-methylpyridin-4-yl)pyrazolo[1,5-a]pyridin-2-yl)cyclopropanecarboxamide]	0.000208 µM	< 0.838 nM
N#Cc1cc(-c2ccn3nc(NC(=O)C4CC4)cc3c2)c(O[C@H]2CCN(C3CC3)C2)cn1 [Example 7, N-[5-[2-cyano-5-[(3S)-1-cyclopropylpyrrolidin-3-yl]oxy-4-pyridyl]pyrazolo[1,5-a]pyridin-2-yl]cyclopropanecarboxamide]	0.000725 µM	29.9 nM
